Source: PMC9234961 (Journal of Medicinal Chemistry, 2022)
“And” between values parts separate entries of the source, which are not always exact repeats. Equal values may be shown once.

Columns and labels:
[1] = Linearity PK studies in SCID mice; conditions: solution formulation
[2] = Microsomal clearance assay (HLM); format: in vitro ADME; conditions: human liver microsomes, 1 μM compound
Method: 6. Supplementary experimental: in vitro DMPK assays
6.1 Microsomal clearance assay
Microsomal clearance was determined in female CD1 mice, female Sprague–Dawley rats, and mixed gender human liver microsomes obtained from BioIVT (Peterborough, U.K.) following incubation of 1 μM compound at 37 °C in 0.5 mg/mL microsomal protein, 3 mmol/L MgCl2, 1 mmol/L NADPH, 2.5 mmol/L and 10 mmol/L phosphate buffer (pH 7.4) (all purchased from Sigma-Aldrich, Gillingham, U.K). Reactions were started by addition of the cofactors following 10 min preincubation of microsomes with test compound and were terminated at −1, 0, 5, 10, 15, and 30 min with three volumes of ice-cold methanol containing internal standard. Samples were centrifuged at 2800g for 30 min at 4 °C and the supernatants analyzed.
Control incubations were prepared as above with omission of cofactors. Compound measurements were […]
separation with a 3 min gradient of 0.1% formic acid in methanol on a Kinetex C18, 50 × 2.1 mm 2.6 μm UPLC column (Phenomenex, Macclesfield, UK). […]

HT = test: Cell proliferation assay (14 days), HT
Method: (§2) Cells were seeded in 96-well culture plates at a density of 2500 cells/well in RPMI-1640 medium (Sigma-
(§3) Aldrich) supplemented with 10% FBS (Gibco). Compounds were initially dispensed into 96-well U-bottom
(§4) plates using an Echo 550 acoustic dispenser (Labcyte Inc.), then diluted in RPMI-1640 medium and
(§5) transferred onto the cells. Cells were treated with 8 compound concentrations in duplicate, ranging from
(§6) with compound for 14 days, with medium changes at days 3, 7 and 10 carried out as follows: fresh 96-well
(§7) cell culture plates were prepared containing 100 µl medium plus compound at the assay concentrations
(§8) (white plates were used on day 10 to optimise luminescence measurement). Assay plates containing cells
(§9) were vortexed to mix and cell density in one control well was counted using a Coulter Z2 cell counter
(§10) (Beckman Coulter). The volume of medium containing 2500 cells in the control well was calculated and this volume of cells was transferred from every well of the assay plates to the corresponding well of the fresh plates containing compound. After 14 days, CellTiter Glo reagent (Promega) was added to the medium in each well of the assay plate at a ratio of 1:2, mixed on a plate shaker, then incubated at room temperature for 10 minutes. Luminescence was measured using an Envision plate reader (Perkin Elmer) and the relative luminescence at each compound concentration, compared to DMSO alone, was calculated. GI50 were determined using a 4-parameter curve fit in Dotmatics (Bishops Stortford, UK).

SU-DHL-4 = test: Cell proliferation assay (14 days), SU-DHL-4
Method: as §2, §3, §4, §5, §6, §7, §8, §9, §10

BCL6 in Karpas 422 cells = BCL6 in Karpas 422 cells (Homo sapiens, UniProt P41182); test: cell-based
Method: 3.2 Mesoscale Discovery (MSD) Degradation Assay
An MSD assay was developed for screening of compounds to determine the degradation of endogenous BCL6 in OCI-Ly1 cells. Briefly, test compounds in DMSO or DMSO alone to a total of 1332.5 nL/well were dispensed to a 96-well Nunc™ Edge 2 plate (ThermoFisher Scientific, 267544) using an Echo® 550 acoustic […]
supplemented with 10% heat-inactivated fetal bovine serum (Sera Plus, PAN Biotech, P30-3702) were […]
incubation at 37 °C + 5% CO2 the plate was centrifuged at 300 x g for 5 minutes. […]
plate washer for all wash and aspiration steps, media was removed and cells were rinsed with PBS, centrifuged as before and PBS removed. Cells were lysed in 50 µL ice-cold lysis buffer at pH 7.4 containing 50 mM Tris-HCl, 150 mM NaCl, 1 % Triton X-100 (v/v), 1 mM PMSF, 1 mM activated sodium vanadate, 1 mM EDTA, phosphatase inhibitors 2 and 3 (1:50 dilution) and protease inhibitor cocktail (1:100 dilution).
20 °C or continuing the assay. A 96-well MSD standard bind plate (MSD, L15XA-3) which was coated overnight with 1 µg/mL anti-human BCL6 goat antibody in PBS (R&D Systems, AF5046) was blocked in 3% BSA in TBS + 0.1% Tween-20 for 1 hour with shaking. Wells were emptied thoroughly before 40 µL/well of lysate was transferred from the cell plate. The MSD plate was incubated at RT for 1 hour with shaking then washed three times with TBS + 0.1 % Tween-20. Antibodies were prepared in TBS + 0.1% Tween-20 + 1% BSA. Anti-human BCL6 rabbit antibody (Cell Signalling Technology, 14895S) was added at 1:100 dilution at 25 µL/well. The plate was incubated and washed as before. MSD Sulfo-tag anti-rabbit detection antibody (MSD, R32AB-1) at 1:1000 dilution at 25 µL/well was added. The plate was incubated and washed as before and MSD Gold read buffer (MSD R92TG) at 1:1 dilution with water at 150 µL/well was added. The plate was read within 10 minutes on the MSD Quickplex reader. The % inhibition at each […]
3.3 Cell proliferation assay
Aldrich) supplemented with 10% FBS (Gibco). […]
transferred onto the cells.
Assay plates containing cells […]

nAChR(a4/b2) = nAChR(a4/b2) (Homo sapiens, UniProt P17787+P43681); test: SAFETYScan Ion Channel, Opener; format: cell-based
Chain of nAChR(a4/b2) (P43681 29-627 limits assumed): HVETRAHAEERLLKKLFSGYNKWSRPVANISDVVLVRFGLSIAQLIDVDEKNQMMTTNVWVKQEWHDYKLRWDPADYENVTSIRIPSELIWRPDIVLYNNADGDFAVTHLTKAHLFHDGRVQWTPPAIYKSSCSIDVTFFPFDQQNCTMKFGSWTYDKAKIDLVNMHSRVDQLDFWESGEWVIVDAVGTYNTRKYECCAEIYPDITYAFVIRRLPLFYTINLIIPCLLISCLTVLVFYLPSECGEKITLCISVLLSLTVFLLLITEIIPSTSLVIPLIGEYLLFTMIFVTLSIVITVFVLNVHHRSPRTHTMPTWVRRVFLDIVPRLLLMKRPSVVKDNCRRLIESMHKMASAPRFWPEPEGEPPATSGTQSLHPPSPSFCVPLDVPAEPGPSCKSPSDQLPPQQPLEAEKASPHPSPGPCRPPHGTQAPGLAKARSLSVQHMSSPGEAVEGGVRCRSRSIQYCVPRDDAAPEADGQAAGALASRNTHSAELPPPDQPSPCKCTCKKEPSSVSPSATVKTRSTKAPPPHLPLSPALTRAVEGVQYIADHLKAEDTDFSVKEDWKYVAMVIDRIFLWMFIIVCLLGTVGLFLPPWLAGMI
Chain of nAChR(a4/b2) (P17787 26-502): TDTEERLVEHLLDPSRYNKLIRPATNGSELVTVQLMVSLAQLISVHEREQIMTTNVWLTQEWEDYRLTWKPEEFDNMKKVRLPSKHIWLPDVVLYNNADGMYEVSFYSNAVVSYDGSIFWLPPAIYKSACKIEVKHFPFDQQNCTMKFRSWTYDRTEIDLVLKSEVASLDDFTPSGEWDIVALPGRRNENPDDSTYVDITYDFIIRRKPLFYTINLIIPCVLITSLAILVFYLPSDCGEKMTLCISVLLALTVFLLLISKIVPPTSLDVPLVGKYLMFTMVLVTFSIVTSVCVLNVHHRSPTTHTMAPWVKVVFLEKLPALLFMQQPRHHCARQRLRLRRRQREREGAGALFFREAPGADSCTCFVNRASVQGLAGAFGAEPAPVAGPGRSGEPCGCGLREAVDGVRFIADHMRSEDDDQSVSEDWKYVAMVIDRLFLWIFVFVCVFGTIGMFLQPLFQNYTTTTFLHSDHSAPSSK
From the text: (§1) Supplement jm1c02175_si_002.xlsx, sheet "SAFETYScan" | column: RC50 (uM); Max Response

KvLQT1/minK = KvLQT1/minK (Homo sapiens, UniProt P51787); test: SAFETYScan Ion Channel, Opener; format: cell-based
Chain of KvLQT1/minK (P51787 whole entry): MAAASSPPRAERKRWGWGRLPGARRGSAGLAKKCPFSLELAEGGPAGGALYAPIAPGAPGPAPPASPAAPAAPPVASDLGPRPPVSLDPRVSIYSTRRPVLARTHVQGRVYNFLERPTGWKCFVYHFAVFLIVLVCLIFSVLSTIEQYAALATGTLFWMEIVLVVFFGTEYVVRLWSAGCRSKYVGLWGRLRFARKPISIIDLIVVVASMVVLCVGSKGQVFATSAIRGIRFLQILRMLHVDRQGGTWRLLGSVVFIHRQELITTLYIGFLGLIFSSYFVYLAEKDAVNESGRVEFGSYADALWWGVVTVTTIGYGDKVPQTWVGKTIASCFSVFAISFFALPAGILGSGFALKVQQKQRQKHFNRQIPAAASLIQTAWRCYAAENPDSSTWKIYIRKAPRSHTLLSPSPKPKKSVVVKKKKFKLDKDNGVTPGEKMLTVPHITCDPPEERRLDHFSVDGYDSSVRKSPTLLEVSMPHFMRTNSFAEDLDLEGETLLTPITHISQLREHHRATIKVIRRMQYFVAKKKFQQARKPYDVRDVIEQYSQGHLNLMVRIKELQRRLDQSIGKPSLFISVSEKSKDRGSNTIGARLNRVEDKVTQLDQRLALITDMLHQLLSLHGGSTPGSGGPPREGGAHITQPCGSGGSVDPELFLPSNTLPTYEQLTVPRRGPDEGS
From the text: as §1

HTR3A = target: T1, HTR3A (Homo sapiens, UniProt P46098); test: SAFETYScan Ion Channel, Opener; format: cell-based
T1 sequence (P46098 24-478): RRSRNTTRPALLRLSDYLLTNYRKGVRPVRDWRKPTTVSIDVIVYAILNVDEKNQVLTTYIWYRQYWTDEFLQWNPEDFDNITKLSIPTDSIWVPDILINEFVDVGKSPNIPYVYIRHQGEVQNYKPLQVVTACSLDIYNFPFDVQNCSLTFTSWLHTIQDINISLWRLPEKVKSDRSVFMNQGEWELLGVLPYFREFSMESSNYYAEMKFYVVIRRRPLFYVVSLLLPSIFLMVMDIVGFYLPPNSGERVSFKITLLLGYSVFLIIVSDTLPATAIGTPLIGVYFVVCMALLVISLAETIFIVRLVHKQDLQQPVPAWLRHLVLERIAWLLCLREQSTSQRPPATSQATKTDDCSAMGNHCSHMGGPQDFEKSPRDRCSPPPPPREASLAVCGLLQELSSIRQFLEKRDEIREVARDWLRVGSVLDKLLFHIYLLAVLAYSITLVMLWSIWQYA
From the text: as §1

GABAA = GABAA (Homo sapiens, UniProt P14867+P18507+P47870); test: SAFETYScan Ion Channel, Opener; format: cell-based; conditions: read-out: Max Response
Chain of GABAA (P18507 40-475): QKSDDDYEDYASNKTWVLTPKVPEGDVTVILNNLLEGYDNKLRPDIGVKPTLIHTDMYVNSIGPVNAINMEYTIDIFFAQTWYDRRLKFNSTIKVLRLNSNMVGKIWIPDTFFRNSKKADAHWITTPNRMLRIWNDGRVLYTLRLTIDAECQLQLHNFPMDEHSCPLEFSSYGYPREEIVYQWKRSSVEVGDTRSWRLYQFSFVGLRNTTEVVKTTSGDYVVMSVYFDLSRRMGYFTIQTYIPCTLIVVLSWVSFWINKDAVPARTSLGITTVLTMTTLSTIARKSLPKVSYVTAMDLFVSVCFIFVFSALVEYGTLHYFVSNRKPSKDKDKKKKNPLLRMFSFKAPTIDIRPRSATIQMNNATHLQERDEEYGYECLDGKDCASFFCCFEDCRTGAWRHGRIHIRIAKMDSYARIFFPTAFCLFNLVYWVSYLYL
Chain of GABAA (P14867 28-456): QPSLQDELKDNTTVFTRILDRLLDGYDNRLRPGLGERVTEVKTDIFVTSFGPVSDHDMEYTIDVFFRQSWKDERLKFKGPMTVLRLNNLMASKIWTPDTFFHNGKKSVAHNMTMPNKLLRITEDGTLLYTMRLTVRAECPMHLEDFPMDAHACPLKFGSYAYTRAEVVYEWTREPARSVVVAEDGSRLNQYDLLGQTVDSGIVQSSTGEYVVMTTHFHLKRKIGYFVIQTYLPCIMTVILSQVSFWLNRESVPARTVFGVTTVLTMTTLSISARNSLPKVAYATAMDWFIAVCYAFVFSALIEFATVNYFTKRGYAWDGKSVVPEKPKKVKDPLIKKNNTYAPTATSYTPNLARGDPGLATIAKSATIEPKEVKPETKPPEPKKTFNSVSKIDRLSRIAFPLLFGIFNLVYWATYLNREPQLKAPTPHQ
Chain of GABAA (P47870 26-512): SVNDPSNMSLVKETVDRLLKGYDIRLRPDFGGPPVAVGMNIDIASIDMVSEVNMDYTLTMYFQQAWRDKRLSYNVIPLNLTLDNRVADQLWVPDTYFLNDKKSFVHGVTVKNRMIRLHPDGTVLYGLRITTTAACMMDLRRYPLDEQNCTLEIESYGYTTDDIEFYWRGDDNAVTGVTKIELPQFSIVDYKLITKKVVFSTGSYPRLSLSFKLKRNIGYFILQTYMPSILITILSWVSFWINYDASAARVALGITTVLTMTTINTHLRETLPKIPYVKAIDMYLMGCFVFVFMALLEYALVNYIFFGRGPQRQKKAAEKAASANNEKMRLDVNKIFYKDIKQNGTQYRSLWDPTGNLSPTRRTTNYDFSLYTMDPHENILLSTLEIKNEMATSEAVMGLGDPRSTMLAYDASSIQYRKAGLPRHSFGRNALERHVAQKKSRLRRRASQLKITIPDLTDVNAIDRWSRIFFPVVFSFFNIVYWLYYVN
From the text: as §1

NMDAR (1A/2B) = NMDAR (1A/2B) (Homo sapiens, UniProt Q05586+Q13224); test: SAFETYScan Ion Channel, Opener; format: cell-based
Chain of NMDAR (1A/2B) (Q13224 27-1484, other chains not shown): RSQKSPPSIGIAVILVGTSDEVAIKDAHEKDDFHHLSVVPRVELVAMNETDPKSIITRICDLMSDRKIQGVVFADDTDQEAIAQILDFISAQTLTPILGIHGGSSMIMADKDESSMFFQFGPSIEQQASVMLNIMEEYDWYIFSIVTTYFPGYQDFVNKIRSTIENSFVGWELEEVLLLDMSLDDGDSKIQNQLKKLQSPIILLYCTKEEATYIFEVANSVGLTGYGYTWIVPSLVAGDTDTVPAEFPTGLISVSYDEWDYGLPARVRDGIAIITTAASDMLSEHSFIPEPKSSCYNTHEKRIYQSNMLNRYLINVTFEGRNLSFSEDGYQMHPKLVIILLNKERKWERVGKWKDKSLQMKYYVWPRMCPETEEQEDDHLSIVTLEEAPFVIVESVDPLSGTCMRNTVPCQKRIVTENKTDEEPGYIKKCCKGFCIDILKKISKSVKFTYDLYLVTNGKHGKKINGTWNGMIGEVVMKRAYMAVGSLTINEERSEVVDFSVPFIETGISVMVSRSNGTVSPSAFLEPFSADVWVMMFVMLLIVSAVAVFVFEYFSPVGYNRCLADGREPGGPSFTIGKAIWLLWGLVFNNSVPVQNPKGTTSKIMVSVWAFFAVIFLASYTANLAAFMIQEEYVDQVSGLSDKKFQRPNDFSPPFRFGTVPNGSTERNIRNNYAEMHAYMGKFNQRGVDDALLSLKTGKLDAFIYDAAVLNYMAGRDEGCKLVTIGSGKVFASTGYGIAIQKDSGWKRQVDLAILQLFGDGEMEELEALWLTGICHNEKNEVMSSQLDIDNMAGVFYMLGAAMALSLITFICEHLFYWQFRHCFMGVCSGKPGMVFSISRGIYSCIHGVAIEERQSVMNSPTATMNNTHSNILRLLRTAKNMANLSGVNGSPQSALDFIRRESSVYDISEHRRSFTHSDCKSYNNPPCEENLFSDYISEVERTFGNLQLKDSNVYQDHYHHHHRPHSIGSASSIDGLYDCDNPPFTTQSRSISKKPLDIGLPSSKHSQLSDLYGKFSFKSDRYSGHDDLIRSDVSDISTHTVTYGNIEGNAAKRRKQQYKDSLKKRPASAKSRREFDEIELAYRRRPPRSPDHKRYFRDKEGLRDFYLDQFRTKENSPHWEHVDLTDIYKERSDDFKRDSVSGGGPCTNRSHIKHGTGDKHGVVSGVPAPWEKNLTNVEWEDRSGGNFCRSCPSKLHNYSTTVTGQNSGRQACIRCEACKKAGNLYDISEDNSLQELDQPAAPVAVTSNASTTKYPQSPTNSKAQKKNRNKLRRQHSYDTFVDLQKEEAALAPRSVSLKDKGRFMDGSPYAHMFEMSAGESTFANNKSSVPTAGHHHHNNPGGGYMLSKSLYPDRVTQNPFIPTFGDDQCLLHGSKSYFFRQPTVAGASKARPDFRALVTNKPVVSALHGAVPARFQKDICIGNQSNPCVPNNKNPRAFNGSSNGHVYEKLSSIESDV
From the text: as §1

OCI-Ly3 = test: Cell proliferation assay (14 days), OCI-Ly3
Method: as §2, §3, §4, §5, §6, §7, §8, §9, §10

human BCL6 BTB domain = human BCL6 BTB domain (Homo sapiens, UniProt P41182); test: biochemical; conditions: BCL6 TR-FRET IC50 individual replicates, single replicate values
[3] = Microsomal clearance assay (MLM); format: in vitro ADME; conditions: female, CD1, pH 7.4; mouse liver microsomes, 1 μM compound
In short: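 Compound (1 µM) was incubated at 37 °C with female CD1 mouse, female Sprague–Dawley rat or mixed-gender human liver microsomes (0.5 mg/mL protein) in 10 mmol/L phosphate, pH 7.4, with 3 mmol/L MgCl2. After 10 min preincubation, 1 mmol/L NADPH started the reaction. Samples taken up to 30 min were methanol-quenched and analysed by LC-MS.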

In the case of C[C@H]1C[C@@H](O)CN(c2ncc(Cl)c(Nc3ccc4c(c3)c3c(c(=O)n4C)OCC(F)(F)[C@H](C4CC4)N3)n2)C1 [12a CCT373566, (S)-10-((5-Chloro-2-((3R,5S)-3-hydroxy-5-methylpiperidin-1-yl)pyrimidin-4-yl)amino)-2-cyclopropyl-3,3-difluoro-7-methyl-1,2,3,4-tetrahydro-[1,4]oxazepino[2,3-c]quinolin-6(7H)-one], the exposure versus dose [1] is reported as “exposure increased with the dose”, the microsomal CLint at 0.5 h, 1 µM ([2]; both sexes, pH 7.4) is reported as 8 µL/min/mg and the “CLint (HLM)” value [2] is reported as “low clearance”. The “HT GI50” value (HT; 14-day proliferation assay) was “Very potent growth inhibition”, the GI50 (HT; Homo sapiens, HT, 336 h, read-out: HT GI50) was 8 nM and the “SU-DHL-4 GI50” value (SU-DHL-4; 14-day proliferation assay) was “Very potent growth inhibition”. It also gave a GI50 (SU-DHL-4; Homo sapiens, SU-DHL-4, 336 h, read-out: SU-DHL-4 GI50) of 12.5 nM, a Dmax (BCL6 in Karpas 422 cells; KARPAS-422, read-out: MSD degrader assay [Karpas 422] Dmax) of 85% and a DC50 (BCL6 in Karpas 422 cells; read-out: MSD degrader assay [Karpas 422] DC50, Karpas 422 cells) of 1 nM. It also gave an Emax (nAChR(a4/b2); read-out: Max Response) of 0%, an EC50 (nAChR(a4/b2); read-out: RC50 (EC50)) greater than 10 µM and an Emax (KvLQT1/minK; read-out: Max Response) of 3.79%. For the same molecule, the EC50 (KvLQT1/minK; read-out: RC50 (EC50)) was greater than 10 µM, the Emax (HTR3A; read-out: Max Response) was 1.5% and the EC50 (HTR3A; read-out: RC50 (EC50)) was greater than 10 µM. The Emax (GABAA) was 4.81%, the Emax (NMDAR (1A/2B); read-out: Max Response) was 1.31% and the EC50 (NMDAR (1A/2B); read-out: RC50 (EC50)) was greater than 10 µM. For the same molecule, the “OCI-Ly3 GI50” value (OCI-Ly3; 14-day proliferation assay, BCL6 low-expressing cell line) was “not seen”, the GI50 (OCI-Ly3; Homo sapiens, OCI-Ly3, 336 h, read-out: OCI-Ly3 GI50) was 1900 nM and the IC50 (human BCL6 BTB domain) was 3.8 nM and 1.9 nM and 1.7 nM and 2.6 nM (3×) and 2.4 nM and 2.9 nM and 1.8 nM (3×) and 1.2 nM and 2.7 nM. For the same molecule, the microsomal CLint at 0.5 h, 1 µM [3] was 116 µL/min/mg.
